From PMC6354162, “Development of a MD-LC-MS/MS Method to Analyze 3 Bioactive Compounds in Huoxuezhitong Rubber Patch and Application to a Pharmacokinetic Study in Rats” (Evidence-based Complementary and Alternative Medicine : eCAM, 2019)

Legend:
[1] = Local (subcutaneous) pharmacokinetic study by dermal microdialysis after dermal administration of Huoxuezhitong rubber patch; type: in vivo; conditions: Sprague-Dawley, rat, subcutaneous (dermal) microdialysate, topical, male SD rats, mean ± SD, n = 6; for Cmax: maximum subcutaneous concentration, transdermal Huoxuezhitong rubber patch (3.46 cm2), removed after 720 min, corrected by RR; for AUC(0-t): subcutaneous concentration-time curve, read-out: AUC0-720 (converted); for AUC(0-t) / Tmax / MRT last / MRT inf / half-life: transdermal Huoxuezhitong rubber patch; for Tmax: subcutaneous tissue; for MRT last / MRT inf / half-life: subcutaneous; for MRT last: read-out: MRT0-720 (converted); for MRT inf: read-out: MRT0-∞ (converted); for half-life: terminal elimination half-life
Description: Before surgery, a rat with the hair on the abdomen shaved off was anesthetized with Urethane (1.5g/ kg, intraperitoneal injection). Its shell temperature was maintained at about 32.5°C during the experiment with the help of an infrared lamp. The linear microdialysis probe was inserted through a 23-gage intravenous needle. Subsequently, the needle was taken out, leaving the dialysis membranes horizontal under the hairless skin.
Implantation and pretreatment of the probe are the same as that described in Section 2.3. Then a round rubber patch (3.46 cm^2) was pasted on the hairless abdomen of the rat, respectively. After 720 min, the paste was scripted away. The skin was wiped softly and carefully to remove the residual drug. Simultaneously, another three samples was collected. If the rats suddenly died, the collection had to be terminated. All samples were immediately stored at 4°C until injected into the LC/MS/MS system for analysis. The sample concentration was corrected by RR.
The pharmacokinetics analysis was conducted by a noncompartmental approach using the Kinetica 5.1. The pharmacokinetics parameters, such as the maximum subcutaneous concentration (Cmax), time of reaching Cmax (Tmax), the area subcutaneous concentration-time curve (AUC0-t), the mean residence time (MRT), and the terminal elimination half-life (t1/2), were calculated on each individual analyte.

[2] = cited from earlier work

SMILES	Cmax [1]	AUC(0-t) [1]	Tmax [1]	MRT last [1]	MRT inf [1]	half-life [1]	Water solubility [2]
COc1ccc(C(C)=O)c(O)c1 [paeonol]	12.6 ± 3.29 ng/mL	83.7 ng·h/mL	3.11 h	6.06 h	9.5 h	5.62 ± 3.8 h	349.8 µg/mL
O=C(/C=C/C=C/c1ccc2c(c1)OCO2)N1CCCCC1 [piperine]	1.8 ± 1.22 ng/mL	14.7 ng·h/mL	8.13 h	9.17 h	11.5 h	5.62 ± 0.741 h	insoluble
C=CCc1ccc(O)c(OC)c1 [eugenol]	18.9 ± 7.11 ng/mL	119 ng·h/mL	4 h	6.2 h	7.77 h	3.81 ± 2.7 h	insoluble
